89 compounds from a melting point compilation (Tetko et al.; mined from patent text by program, amines drawn as free bases though some values may be those of a salt) can be followed below.

Bounds are passed on as bounds.

`COc1ccc(CSc2ccncc2C(=O)O)cc1` registered a melting point of 230 °C. The result for `CCn1cc(C(=O)O)c(=O)c2cc(F)c(-n3ccnc3)c(F)c21` reads 283 to 288 °C. The result for `ClCCCCSc1ccncc1` reads 80 to 85 °C; that for `CN1C(=O)[C@H](NC(=O)CNc2ccccc2Cl)N=C(c2ccccc2)c2ccccc21`, 222 to 224 °C; that for `CCc1noc(=O)c2ccc(NC(=O)C(=O)CC(C)(C)c3cc(F)ccc3OC)cc12`, 157 to 158 °C. Next, `Cc1nc(C#N)ccc1O`: 201 to 205 °C; `CC(C)c1ccc(NC(=O)C(F)(F)F)cc1`: 98 °C; `CCCN(CCC)CCc1cccc2[nH]c(=O)[nH]c12`: 189 to 192 °C. In turn, `COc1nc(N2CCCCC2)nc(OC)c1O` registered a melting point of 109 °C. The result for `O=C1NC(=O)C(Cc2ccc(OCCN3C(=O)c4ccccc4C3=O)cc2)S1` (centres undefined) reads 192 to 194 °C; that for `CCCCC1CSC(C(=O)Nc2c(SC)cc(C)nc2SC)c2cc(OC)c(OC)cc2C1` (centres undefined), 143 to 145 °C. The result for `O=c1cc(CBr)c2cc(O)ccc2o1` reads 198 to 200 °C; that for `CC1(c2ccccc2)SC(=NO)N(Nc2ccccc2)C1=O` (centres undefined), 62 to 63 °C.

On to `COc1ccc2c(c1)sc1nc(C(O)C3CC3)cn12` (centres undefined), for which the melting point fell in the range of 151 to 153 °C.

Regarding `CCCCCCCCCCCCCCCCCCNC(=O)Oc1ccc([N+](=O)[O-])cc1OC(=O)NCCCCCCCCCCCCCCCCCC`, the melting point is 117 to 121 °C. Next, `N=C(NCc1cccnc1)NN=Cc1c(Cl)cccc1Cl`: 148 to 151 °C; `Nc1ccc(SCc2cnc3ccccn23)cc1`: 119 to 121 °C.

The compound `Cc1c(CC(=O)O)c2cc(O)ccc2n1C(=O)c1ccc(F)cc1` registered a melting point of 180 to 182 °C. The result for `O=C1OC(=O)C2=C1CCOc1ccccc12` reads 142 to 143 °C.

`CNc1cc(SCC(C)O)c(N)cc1[N+](=O)[O-]` (centres undefined) gave a melting point of 152 °C.

Compound `O=C(Nc1ccc(N(CCCl)CCCl)cc1)Nc1cc(CO)cc(Nc2c3ccccc3nc3ccccc23)c1` had a melting point of 173 to 175 °C. The result for `CC1=C(CC(NC(=O)c2ccc(Cl)cc2)NC(=N[N+](=O)[O-])Nc2cccnc2)C(C)(C)CCC1` (centres undefined) reads 217 to 218 °C; that for `O=C(Nc1nc2ccc(Sc3cnc4ncc(NCc5ccccc5)cn34)cc2s1)C1CC1`, greater than 260 °C. Next, `CCCc1ccnc2c(=O)[nH]c(-c3cc(N)ccc3OCC)nc12`: 156 to 158 °C; `Nc1cc(-n2ccnc2)c(F)cc1[N+](=O)[O-]`: 122 to 123 °C; `CCOC(=O)c1cn(-c2c(O)cccc2O)cn1`: 229 to 230 °C.

`CCOCCOc1cc(OC)c(C(CC(=O)Nc2cc(C(N)=O)ccc2C(C)(C)C)CC(C)C)cc1Cl` (centres undefined): the melting point lay in the range of 180 to 181 °C. `O=S1(=O)CCN2C=CC=C(c3ccc(Oc4ccccc4)cc3)C2=N1` yielded a melting point of 251 to 252 °C.

The compound `N#Cc1ccc(CCC(=O)c2c(O)c3cccnc3n(-c3ccccc3)c2=O)cc1` displayed a melting point of 248 to 249 °C.

Take `COC1CCCCC1(O)c1ccncc1` (centres undefined): the melting point lay in the range of 98 to 101 °C. Turning to `CC(C(N)=O)c1ccc2c(c1)Sc1ncccc1CC2=O` (centres undefined), the melting point is 161 to 162 °C.

In turn, `COc1ccc(C(C)(C)C)cc1NC(=S)Nc1cccc2ccccc12` showed a melting point of 158 to 160 °C. The compound `Cc1cc(-c2ccccc2)c(C)cc1-c1ccccc1` returned a melting point of 301 to 304 °C. The result for `COCCOCCOc1cc(OC)c(-c2cccs2)cc1/C=C/C(=O)c1ccc(C(=O)O)cc1` reads 145 to 146 °C; that for `CCOC(=O)CS(=O)(=O)c1cc(NS(=O)(=O)c2cccs2)c2ccccc2c1O`, 154 to 156 °C; that for `Cc1nc(C=Cc2nc3ccccc3c(=O)n2-c2ccccc2Cl)cs1`, 219 to 221 °C.

The compound `CCCCN(CCCC)c1ccc(C=Cc2ccc(C=CC3=C(C#N)C(=C(C#N)C#N)OC3(C)C)s2)c(OC)c1` showed a melting point of 191 to 192 °C. Next, `CCN(CC)CC/C=C/c1cc2ncc(C#N)c(Nc3ccc(Sc4nccn4C)c(Cl)c3)c2cc1OC`: 194 to 202 °C. Next, `CCCC1(CCC)c2ccccc2-c2cc3c(cc21)OCN3c1c(O)ccc2oc3ccccc3c12`: 304 to 305 °C; `COC(=O)c1cc(Cl)c2c(c1OC)CCN2C(C)=O`: 107 to 109 °C; `Nc1c(F)c(N2CCC(c3ccncc3)C2)c(F)c2c1c(=O)c(C(=O)O)cn2C1CC1` (centres undefined): 236 to 238 °C. Next, `COc1cc2c(cc1OC)CN(CCCc1ccc(NC(=O)c3cccc4c(=O)c5cccc(C)c5[nH]c34)cc1)CC2`: 120 °C; `CNC(=O)NC(Cc1c[nH]c2ccccc12)C(=O)OCc1cc(C)cc(C)c1` (centres undefined): 66 to 68 °C; `Nc1ccc(-c2ncnn2-c2ccccc2F)cc1`: 139 to 141 °C. As to `CC(O)c1cccc([N+](=O)[O-])c1Cl` (centres undefined), the melting point fell in the range of 62 to 64 °C.

Compound `CCOP(=O)(OCC)C1CCn2c(=O)c(=O)[nH]c3cc(C(F)(F)F)cc1c32` (centres undefined) gave a melting point of 250 °C. Next, `Cc1c(-c2ccncc2)[nH]c(-c2ccncc2)c1C(C)O` (centres undefined): 250 to 252 °C; `ClC1=Nc2cc(Cl)ccc2Oc2cscc21`: 180 to 182 °C. Next, `COc1ccc2ccc(O)c(C=O)c2c1`: 126 °C. The compound `Nc1ccc(S(=O)(=O)c2cc(-c3ccc(F)cc3)nc(N3CCCC3)c2)cc1` displayed a melting point of 245 to 246 °C. The result for `Cc1cc(CCCCCOc2c(Cl)cc(C3=NCCC3)cc2Cl)on1` reads 57 to 59 °C.

`CC[C@@]12C[C@@](C)(O)[C@](O)(c3ccccc3)C[C@H]1CCc1cc(OCC(=O)O)ccc12` showed a melting point of 190 to 191 °C. Next, `Cc1cccc(C)c1CNc1cc(C(=O)NCCO)cc2c1nc(C)n2C`: 259 to 260 °C; `CCOC(=O)C1=C(C(F)(F)F)NC(N)(C(F)(F)F)C(C(=O)OCC)S1` (centres undefined): 87.5 to 89 °C. Compound `Cn1c(CCNC2CCN(Cc3ccccc3)CC2)cc2ccccc21` displayed a melting point of 72 to 73 °C. The result for `CN1CCN(C2=Nc3ccccc3N3CCc4cc(Cl)cc2c43)CC1` reads 182 to 183 °C; that for `OCc1cc2c(F)cccc2nc1Cl`, 176 °C. The result for `NC(CN1CCC(=C2c3ccccc3C=Cc3ccccc32)CC1)C(=O)NCC(=O)O` (centres undefined) reads 175 to 176 °C; that for `CC(=O)NCCCCOC1c2ccccc2C(=O)N1c1ccc2ccc(Cl)nc2n1` (centres undefined), 120 °C.

Regarding `Cc1ccnc2c(Oc3ccc(N)cc3)cccc12`, the melting point fell in the range of 157 to 159 °C. The result for `Cn1cccc1-c1nsc2ccc(-n3c(=O)cc(C(F)(F)F)[nH]c3=O)cc12` reads 125 to 130 °C; that for `CON(C(=O)c1cn(C)nc1C(F)F)C(C)Cc1c(Cl)sc(Cl)c1Cl` (centres undefined), 70 to 72 °C. Regarding `Cc1cc2c(=O)n(CCN(Cc3ccc4c(c3)NC(=O)C(C)(C)C(=O)N4CC3CC3)Cc3cccnc3C)ccc2o1`, the melting point lay in the range of 138 to 143 °C. `CCN1CCCC1=NC(=O)Nc1c(C)cccc1C` displayed a melting point of 120 to 122 °C. As to `O=c1ccc2ccc(CBr)cc2o1`, the melting point lay in the range of 172 to 176 °C.

For `O=[N+]([O-])c1cc(O)c(OCCOCCO)cc1[N+](=O)[O-]`, the melting point stood at 135 °C. The result for `CCOC(=O)CNC(=O)C1=C(C(=O)Nc2ccc(Cl)cc2F)CCCC1` reads 170 °C; that for `CCCCCCCCCCOc1ccc(-c2ccccc2)cc1`, 70 to 73 °C. The result for `CN(C)CCC1=Cc2ccc(NC(=O)c3ccc(-c4ccccc4)cc3)cc2CC1` reads 148 to 150 °C. The compound `CCOCc1nc2c(N)nc(C)c(C)c2n1NCCCNC(=O)NC(C)C` came in with a melting point of 203 to 205 °C.

In turn, `Fc1cc(Cl)ccc1NC(=S)C1CCCC=C1N1CCOCC1` (centres undefined) had a melting point of 86 to 88 °C. Next, `CCC(=O)NC(Cl)C(Cl)(Cl)CCl` (centres undefined): 167 °C; `c1cncc(-c2ccc3nnn(Cc4ccc5ncccc5c4)c3n2)c1`: 208 to 210 °C. Next, `Nn1cc(C(=O)O)c(=O)c2cc3c(cc21)OCO3`: 309 to 313 °C; `COC(=O)c1cc2c3cc(C)ccc3n(C)c2s1`: 152 to 155 °C; `CN1c2ccccc2N=C(N2CCN(CCO)CC2)c2cscc21`: 192 to 193 °C. Regarding `CN1CCC(c2c(O)cc(O)c3c(=O)cc(Sc4ccccc4Cl)oc23)C(O)C1` (centres undefined), the melting point was determined as 110 °C.

`O=C(CN1CCC(c2noc3cc(F)ccc23)CC1)N1Cc2ccccc2C1` gave a melting point of 184 to 185 °C.

`COc1cc2c(cc1Nc1ncc(Cl)c(Nc3ccccc3S(=O)(=O)N(C)C)n1)CCN(C(=O)CN1CCOCC1)CC2` displayed a melting point of 84 to 95 °C.

In turn, `CN[C@@H](CC(C)C)C(=O)O` showed a melting point of 101 to 103 °C. The result for `CCN(CC)CCCCNc1ncc2c(n1)N(CC)C(=O)N(c1cc(OC)cc(OC)c1)C2` reads 83 to 85 °C; that for `O=C(O)Cc1ccc2c(c1)CCC(C(F)(F)F)N2` (centres undefined), 107 to 108 °C; that for `CCCCn1cncc1C(O)(c1ccc(Cl)cc1)c1ccc2c(c1)c(-c1cccc(Cl)c1)cc(=O)n2C` (centres undefined), 175 °C. Next, `O=C(NCC12CC3CC(CC(C3)C1)C2)c1cccc(O)c1Cl`: 234 to 235 °C; `CCCCCCCCCCCCCCC[C@@H](O)[C@@H](NCc1ccccc1)C(=O)O`: 132 °C; `O=C(Nc1cc(Cl)ccc1S(=O)(=O)c1ccccc1)N[C@@H](Cc1ccc(NC(=O)c2c(Cl)cccc2Cl)cc1)C(=O)O`: 242 °C.

In turn, `Cc1cc(C)c(Nc2nc(C)ccc2S(=O)(=O)c2ccc(OCCCC#N)cc2)c(C)c1` displayed a melting point of 160 to 162 °C. The compound `Cc1nnc(-c2ccc3occ(-c4ccc5sccc5c4)c3c2)o1` came in with a melting point of 159 to 160 °C. `O=C(Nc1ccc2ccc(Oc3ccccc3)nc2n1)C1CC1` gave a melting point of 190 °C.

As usually defined, the melting point is the temperature, or range, at which the solid turns liquid.
